Laboratory results as given in DBAASP.
In brackets after ≈: the same amount, converted by molar mass. Several values for one entry are separate records, joined by “and”; a condition that tells them apart may be missing. Identical values can stand only once. Values belong to the compound of their own block, whether it stands above or below them.

Tests used:
Assay in all cases: ≥ marks a high value that may be exact or a test limit, other limits are often not marked, values filed in µg/mL are converted to µM
[1] = tested on: Escherichia coli ATCC 25922
[2] = tested on: Micrococcus luteus ATCC 10240
[3] = tested on: Klebsiella pneumoniae ATCC 10031
[4] = tested on: Pseudomonas aeruginosa ATCC 27853
[5] = tested on: Salmonella enterica subsp. enterica serovar Typhimurium ATCC 14028
[6] = tested on: Bacillus subtilis ATCC 6633
[7] = tested on: Staphylococcus epidermidis ATCC 12228
[8] = tested on: Staphylococcus aureus TK784
[9] = tested on: Staphylococcus aureus ATCC 6538P
[10] = tested on: Shigella dysenteriae ATCC 9752
[11] = tested on: Bacillus cereus
[12] = tested on: Staphylococcus epidermidis
[13] = tested on: Leuconostoc lactis
[14] = tested on: Escherichia coli
[15] = tested on: Streptococcus uberis
[16] = tested on: Batrachochytrium dendrobatidis
[17] = tested on: Staphylococcus aureus
[18] = tested on: Pasteurella multocida
[19] = tested on: Listeria innocua
[20] = tested on: Micrococcus luteus
[21] = tested on: Klebsiella pneumoniae ATCC 700603
[22] = tested on: Staphylococcus aureus ATCC 700699
[23] = tested on: Staphylococcus aureus ATCC 33591
[24] = tested on: Staphylococcus aureus ATCC 29213
[25] = tested on: Escherichia coli ML-35p
[26] = tested on: Escherichia coli W160-37
[27] = tested on: Candida albicans ATCC 200955
[28] = tested on: Staphylococcus aureus ATCC 25923
[29] = tested on: Enterococcus faecium ATCC 700221
[30] = tested on: Escherichia coli MG1655
[31] = tested on: Staphylococcus aureus ATCC 33592
[32] = tested on: Pseudomonas aeruginosa

MIC [1]: > 79.9 µM
MIC [2]: ≥ 79.9 µM
MIC [3]: ≥ 79.9 µM
MIC [4]: > 79.9 µM
MIC [5]: > 79.9 µM
MIC [6]: ≥ 79.9 µM
MIC [7]: > 79.9 µM
MIC [8]: ≥ 79.9 µM
MIC [9]: ≥ 79.9 µM
MIC [10]: ≥ 79.9 µM
SMILES: CC(C)C[C@H](NC(=O)[C@H](Cc1c[nH]c2ccccc12)NC(=O)[C@H](CCCCN)NC(=O)[C@H](CCCCN)NC(=O)[C@H](CC(C)C)NC(=O)[C@H](Cc1c[nH]c2ccccc12)NC(=O)[C@@H](N)CCCCN)C(N)=O [KWLKKWL]

MIC [11]: ≥ 38.5 µM
MIC [12]: 9.64 µM (≈ 25 µg/mL)
MIC [13]: 4.63 µM (≈ 12 µg/mL)
MIC [14]: > 38.5 µM
MIC [15]: 19.3 µM (≈ 50 µg/mL)
MIC [16]: ≥ 35.4 µM
MIC [17]: 4.63 µM (≈ 12 µg/mL)
MIC [18]: 19.3 µM (≈ 50 µg/mL)
MIC [19]: 19.3 µM (≈ 50 µg/mL)
MIC [20]: 19.3 µM (≈ 50 µg/mL)
SMILES: CC[C@H](C)[C@H](NC(=O)[C@H](CO)NC(=O)CNC(=O)[C@H](CC(C)C)NC(=O)[C@@H](NC(=O)CNC(=O)[C@H](Cc1ccccc1)NC(=O)[C@H](CC(C)C)NC(=O)CN)C(C)C)C(=O)N[C@@H](C)C(=O)N[C@@H](CCCCN)C(=O)N[C@@H](Cc1cnc[nH]1)C(=O)N[C@H](C(=O)N[C@@H](CC(C)C)C(=O)N1CCC[C@H]1C(=O)N[C@@H](Cc1cnc[nH]1)C(=O)N[C@H](C(=O)N[C@H](C(=O)N1CCC[C@H]1C(=O)N[C@H](C(=O)N[C@H](C(=O)N[C@@H](C)C(=O)N[C@@H](CCC(=O)O)C(=O)N[C@@H](CCCCN)C(=O)N[C@@H](CC(C)C)C(N)=O)[C@@H](C)CC)C(C)C)C(C)C)C(C)C)C(C)C [GLFGVLGSIAKHVLPHVVPVIAEKL]

MIC [1]: 12.5 µM (≈ 32.4 µg/mL)
MIC [21]: 50 µM (≈ 130 µg/mL)
MIC [22]: ≥ 50 µM
MIC [4]: 100 µM (≈ 259 µg/mL)
MIC [23]: 25 µM (≈ 64.8 µg/mL)
MIC [24]: 50 µM (≈ 130 µg/mL)
SMILES: CC[C@H](C)[C@H](NC(=O)[C@H](CC(=O)O)NC(=O)[C@H](CCCCN)NC(=O)[C@H](C)NC(=O)[C@H](CC(C)C)NC(=O)CNC(=O)[C@H](CCCCN)NC(=O)[C@H](CC(C)C)NC(=O)[C@@H](NC(=O)[C@H](CC(=O)O)NC(=O)[C@@H](NC(=O)[C@@H](NC(=O)CN)C(C)C)C(C)C)[C@@H](C)CC)C(=O)N[C@@H](C)C(=O)NCC(=O)N[C@@H](Cc1cnc[nH]1)C(=O)N[C@@H](CC(C)C)C(=O)N[C@@H](C)C(=O)N[C@@H](CO)C(=O)N[C@@H](CCCCN)C(=O)N[C@H](C(=O)N[C@@H](CCSC)C(=O)N[C@@H](CC(N)=O)C(=O)N[C@@H](CCCCN)C(=O)N[C@@H](CC(C)C)C(N)=O)C(C)C [GVVDILKGLAKDIAGHLASKVMNKL]

MIC [25]: ≥ 500 µM
MIC [22]: ≥ 500 µM
SMILES: CC(=O)NCC(=O)N[C@@H](Cc1ccccc1)C(=O)N[C@@H](CCCN=C(N)N)C(=O)N[C@@H](CCCCN)C(=O)N[C@@H](Cc1ccccc1)C(=O)N[C@@H](Cc1cnc[nH]1)C(=O)N[C@@H](CCCCN)C(=O)N[C@@H](Cc1ccccc1)C(=O)N[C@@H](Cc1c[nH]c2ccccc12)C(=O)N[C@@H](C)C(N)=O [GFRKFHKFWA]

MIC [1]: 2.84 µM (≈ 4 µg/mL)
MIC [2]: 2.84 µM (≈ 4 µg/mL)
MIC [3]: 2.84 µM (≈ 4 µg/mL)
MIC [4]: 5.67 µM (≈ 7.99 µg/mL)
MIC [5]: 2.84 µM (≈ 4 µg/mL)
MIC [6]: 2.84 µM (≈ 4 µg/mL)
MIC [7]: 2.84 µM (≈ 4 µg/mL)
MIC [8]: 11.3 µM (≈ 16 µg/mL)
MIC [9]: 1.42 µM (≈ 2 µg/mL)
MIC [10]: 2.84 µM (≈ 4 µg/mL)
SMILES: CC(C)C[C@H](NC(=O)[C@H](Cc1c[nH]c2ccccc12)NC(=O)[C@H](CCCCN)NC(=O)[C@H](CC(C)C)NC(=O)[C@H](CC(C)C)NC(=O)[C@H](CCCCN)NC(=O)[C@H](CCCCN)NC(=O)[C@H](CC(C)C)NC(=O)[C@@H](N)CC(C)C)C(=O)N[C@@H](CCCCN)C(=O)N[C@@H](CCCCN)C(N)=O [LLKKLLKWLKK]

MIC [26]: ≥ 265 µM
SMILES: CC[C@H](C)[C@H](NC(=O)[C@H](CCCCN)NC(=O)[C@H](CCCN=C(N)N)NC(=O)[C@@H]1CCCN1C(=O)[C@@H](NC(=O)[C@H](CC(C)C)NC(=O)[C@H](CCCCN)NC(=O)[C@H](CC(C)C)NC(=O)[C@@H](N)Cc1ccccc1)[C@@H](C)CC)C(=O)N[C@H](C(=O)N[C@H](C(=O)N[C@@H](C)C(=O)N[C@@H](CC(C)C)C(N)=O)[C@@H](C)O)C(C)C [FLKLIPRKIVTAL]

MIC [27]: ≥ 56.8 µM
MIC [28]: 19.5 µM (≈ 22 µg/mL)
MIC [29]: ≥ 171 µM
MIC [4]: 56.8 µM (≈ 63.9 µg/mL)
MIC [23]: ≥ 512 µM
SMILES: CC[C@H](C)[C@H](NC(=O)[C@H](CCCCN)NC(=O)[C@H](CCCCN)NC(=O)[C@H](CC(C)C)NC(=O)[C@H](CC(C)C)NC(=O)CN)C(=O)N[C@@H](CCCCN)C(=O)N[C@H](C(=O)N[C@@H](CC(C)C)C(=O)N[C@@H](CC(C)C)C(N)=O)[C@@H](C)O [GLLKKIKTLL]

MIC [1]: 31.8 µM (≈ 40 µg/mL)
MIC [2]: ≥ 63.6 µM
MIC [3]: ≥ 63.6 µM
MIC [4]: 63.6 µM (≈ 79.9 µg/mL)
MIC [5]: > 63.6 µM
MIC [6]: ≥ 63.6 µM
MIC [7]: > 63.6 µM
MIC [8]: ≥ 63.6 µM
MIC [9]: 31.8 µM (≈ 40 µg/mL)
MIC [10]: ≥ 63.6 µM
SMILES: CC(C)C[C@H](NC(=O)[C@H](Cc1c[nH]c2ccccc12)NC(=O)[C@H](CCCCN)NC(=O)[C@H](CCCCN)NC(=O)[C@H](CC(C)C)NC(=O)[C@H](Cc1c[nH]c2ccccc12)NC(=O)[C@H](CCCCN)NC(=O)[C@@H](N)CCCCN)C(=O)N[C@@H](CCCCN)C(N)=O [KKWLKKWLK]

MIC [30]: 4 µM and 8 µM
MIC [31]: ≥ 38.9 µM
SMILES: CC[C@H](C)[C@H](NC(=O)[C@H](Cc1c[nH]c2ccccc12)NC(=O)[C@H](CO)NC(=O)CNC(C)=O)C(=O)N[C@@H](CCCCN)C(=O)N[C@@H](CCCN=C(N)N)C(=O)N[C@@H](CC(C)C)C(=O)N[C@@H](CC(N)=O)C(=O)N[C@@H](CO)C(=O)N[C@@H](Cc1c[nH]c2ccccc12)C(=O)N[C@@H](CC(C)C)C(=O)N[C@@H](CCCN=C(N)N)C(=O)N[C@@H](CCCCN)C(N)=O [GSWIKRLNSWLRK]

MIC [1]: 3.2 µM (≈ 3.87 µg/mL)
MIC [27]: 3.2 µM (≈ 3.87 µg/mL)
MIC [29]: 3.2 µM (≈ 3.87 µg/mL)
MIC [4]: 9.5 µM (≈ 11.5 µg/mL)
MIC [23]: 2.5 µM (≈ 3.03 µg/mL)
SMILES: CC[C@H](C)[C@H](NC(=O)[C@H](Cc1c[nH]c2ccccc12)NC(=O)[C@H](CCCCN)NC(=O)[C@H](CC(C)C)NC(=O)[C@H](CC(C)C)NC(=O)CN)C(=O)N[C@@H](CCCCN)C(=O)N[C@@H](CCCCN)C(=O)N[C@@H](CC(C)C)C(=O)N[C@@H](CC(C)C)C(N)=O [GLLKWIKKLL]

MIC [32]: 19.6 µM (≈ 30 µg/mL)
MIC [17]: 3.27 µM (≈ 5 µg/mL)
MIC [26]: 4.57 µM (≈ 7 µg/mL)
SMILES: CC[C@H](C)[C@H](NC(=O)[C@H](Cc1c[nH]c2ccccc12)NC(=O)[C@H](CCCCN)NC(=O)[C@H](CO)NC(=O)[C@H](CC(C)C)NC(=O)[C@H](Cc1ccccc1)NC(=O)[C@@H](NC(=O)[C@H](CCCCN)NC(=O)[C@H](CC(C)C)NC(=O)[C@H](CC(C)C)NC(=O)[C@H](CCCCN)NC(=O)[C@@H]1CCCN1)[C@@H](C)O)C(=O)NCC(=O)O [PKLLKTFLSKWIG]
